Blutdrucksenkung data for one compound are collected here from patent EP0174571A2, “Derivatives of amino acids, process for their preparation and pharmaceutical compositions” (BOEHRINGER INGELHEIM KG, priority 1984, dated 1986).

One assay concerns narkotisierten Ratte. Nature of the assay: Blood pressure lowering in the anaesthetised rat after angiotensin I pressor stimulus. It is filed as in vivo. To be noted: 0,3 mg/kg i.v.; blood pressure raised beforehand with 0,1 mg/kg Angiotensin I i.v.; long lasting. On the procedure:
So erzeugt das N-[N-(3-Phenyl-2-S-mercaptopropanoyl)-S-alanyl]-S-prolin an der narkotisierten Ratte in einer Dosierung von 0,3 mg/kg i.v. eine lang anhaltende Blutdrucksenkung von 67 %, wenn man vorher durch eine i.v.-Gabe von 0,1 mg/kg Angiotensin I den Blutdruck steigert.

A further assay concerns Kaninchen. Nature of the assay: Blood pressure test in the rabbit (carotid artery). The format is in vivo. Particulars: 1 mg/kg i.v.; blood pressure from the carotid. On the procedure:
Am Kaninchen (Blutdruckversuch aus der Carotis) wird nach Gabe von 1 mg/kg der Substanz, i.v., eine Blutdrucksenkung von 37 mm beobachtet.

For `CC(NC(=O)C(S)Cc1ccccc1)C(=O)N1CCCC1C(=O)O` (centres unmarked) [Beispiel 1, N-[N-(3-Phenyl-2-S-mercatopropanoyl)-S-alanyl]-S-prolin], the Blutdrucksenkung was 67% in the assay on narkotisierten Ratte and 37 mm in the assay on Kaninchen.
